According to paper PMC3429062, “A Novel Member of the Trehalose Transporter Family Functions as an H^+-Dependent Trehalose Transporter in the Reabsorption of Trehalose in Malpighian Tubules” (Frontiers in Physiology, 2012):

Target: T1, PvTRET1 (Polypedilum vanderplanki, UniProt A5LGM7)
T1 construct: gene Tret1; expressed from injected cRNA in Xenopus oocytes; construct described previously
T1 sequence (A5LGM7 1-504): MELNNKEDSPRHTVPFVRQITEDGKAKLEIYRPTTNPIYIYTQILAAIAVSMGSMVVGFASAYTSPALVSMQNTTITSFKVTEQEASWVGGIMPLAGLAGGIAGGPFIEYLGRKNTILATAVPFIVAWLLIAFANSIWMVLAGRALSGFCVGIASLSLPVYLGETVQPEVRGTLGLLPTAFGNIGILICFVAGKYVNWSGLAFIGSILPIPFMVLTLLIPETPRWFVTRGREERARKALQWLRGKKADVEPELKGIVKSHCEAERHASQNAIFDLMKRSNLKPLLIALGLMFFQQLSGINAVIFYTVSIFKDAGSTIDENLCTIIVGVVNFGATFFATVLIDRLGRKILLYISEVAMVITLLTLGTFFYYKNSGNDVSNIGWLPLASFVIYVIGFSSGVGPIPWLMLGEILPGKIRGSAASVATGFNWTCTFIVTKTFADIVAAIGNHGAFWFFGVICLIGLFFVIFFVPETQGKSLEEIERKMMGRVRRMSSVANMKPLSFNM
Experiment: uptake into cRNA-injected Xenopus oocytes, HPLC
Type: cell-based
Details: 105 mM trehalose, various pH; transport

OC[C@H]1O[C@H](O[C@H]2O[C@H](CO)[C@@H](O)[C@H](O)[C@H]2O)[C@H](O)[C@@H](O)[C@@H]1O [trehalose]
trehalose uptake: Trehalose uptake into Xenopus oocytes via PvTRET1 at various pH values
